Among the data in BindingDB's records for doi:10.1021/jm00058a012 (University of Arizona, 1993) are IC50 values, retold here.

What is called IC50 is the concentration at which inhibition is half-maximal. Low values mean higher potency, high ones lower potency.

Bridge positions count the residues as written; N and C are the ends. Square brackets hold non-standard residues; d marks the D form. Peptide text beside a SMILES is read from it. Pen = CC(C)(S)[C@H](N)C(=O)O

One experiment in a line: Inhibition of [3H]DPDPE binding to delta opioid receptor of guinea pig brain homogenate.
In turn, `CC[C@H](C)[C@H](NC(=O)[C@H](CCCN=C(N)N)NC(=O)[C@H](CCCN=C(N)N)NC(=O)[C@H](CC(C)C)NC(=O)[C@H](Cc1ccccc1)NC(=O)CNC(=O)CNC(=O)[C@@H](N)Cc1ccc(O)cc1)C(=O)N[C@@H](CCCN=C(N)N)C(=O)N1CCC[C@H]1C(=O)N[C@@H](CCCCN)C(=O)N[C@@H](CC(C)C)C(=O)N[C@@H](CCCCN)C(=O)O` [Dynorphin A (1-13)] registered an IC50 of 4.1 nM.
Same read-out and setting: under `CC[C@H](C)[C@@H]1NC(=O)[C@H](CCCNC(=N)N)NC(=O)[C@H](CCCNC(=N)N)NC(=O)[C@@H](NC(=O)[C@H](Cc2ccccc2)NC(=O)CNC(=O)CNC(=O)[C@@H](N)Cc2ccccc2)CSSC[C@@H](C(N)=O)NC(=O)[C@@H]2CCCN2C(=O)[C@H](CCCNC(=N)N)NC1=O` [Phe-Gly-Gly-Phe-c(Cys-Arg-Arg-Ile-Arg-Pro-Cys)] (H-FGGFCRRIRPC-NH2; disulfide 5-11) stands 389 nM; under `CC[C@H](C)[C@@H]1NC(=O)[C@H](CCCN=C(N)N)NC(=O)[C@H](CCCN=C(N)N)NC(=O)[C@@H](NC(=O)[C@H](Cc2ccccc2)NC(=O)CNC(=O)[C@@H](C)NC(=O)[C@@H](N)Cc2ccc(O)cc2)CSSC[C@@H](C(N)=O)NC(=O)[C@@H]2CCCN2C(=O)[C@H](CCCN=C(N)N)NC1=O` [Tyr-(D-ala)-Gly-Phe-c(Cys-Arg-Arg-Ile-Arg-Pro-Cys)], 107 nM; under `CC[C@H](C)[C@@H]1NC(=O)[C@H](CCCN=C(N)N)NC(=O)[C@H](CCCN=C(N)N)NC(=O)[C@@H](NC(=O)[C@@H]2Cc3ccccc3CN2C(=O)CNC(=O)CNC(=O)[C@@H](N)Cc2ccc(O)cc2)CSSC[C@@H](C(=O)O)NC(=O)[C@@H]2CCCN2C(=O)[C@H](CCCN=C(N)N)NC1=O` [Tyr-Gly-Gly-(L-Tic)-c(Cys-Arg-Arg-Ile-Arg-Pro-Cys)], 181 nM.
On the same count and under the same terms, under `CC(C)C[C@H](NC(=O)[C@H](Cc1ccccc1)NC(=O)CNC(=O)CNC(=O)[C@@H](N)Cc1ccc(O)cc1)C(=O)N[C@@H](CCCNC(=N)N)C(=O)N[C@@H](CCCNC(=N)N)C(=O)N[C@@H]1CSSC[C@H](C(=O)N[C@@H](CCCCN)C(N)=O)NC(=O)[C@H](CCCCN)NC(=O)[C@@H]2CCCN2C(=O)[C@H](CCCNC(=N)N)NC1=O` [Tyr-Gly-Gly-Phe-Leu-Arg-Arg-c((D-Cys)-Arg-Pro-Lys-(D-Cys))-Lys] stands 6.5 nM; under `CC(C)C[C@H](NC(=O)[C@H](Cc1ccccc1)NC(=O)CNC(=O)CNC(=O)[C@@H](N)Cc1ccc(O)cc1)C(=O)N[C@@H](CCCN=C(N)N)C(=O)N[C@@H](CCCN=C(N)N)C(=O)N[C@H]1CSSC[C@H](C(N)=O)NC(=O)[C@H](CC(C)C)NC(=O)[C@H](CCCCN)NC(=O)[C@@H]2CCCN2C(=O)[C@H](CCCN=C(N)N)NC1=O` [Tyr-Gly-Gly-Phe-Leu-Arg-Arg-c(Cys-Arg-Pro-Lys-Leu-Cys)], 1.9 nM.
Same read-out and setting: under `CC[C@H](C)[C@@H]1NC(=O)[C@H](CCCN=C(N)N)NC(=O)[C@H](CCCN=C(N)N)NC(=O)[C@@H](NC(=O)[C@H](Cc2ccccc2)NC(=O)CNC(=O)CNC(=O)[C@@H](N)Cc2ccc(O)cc2)C(C)(C)SSC[C@@H](C(N)=O)NC(=O)[C@@H]2CCCN2C(=O)[C@H](CCCN=C(N)N)NC1=O` [Tyr-Gly-Gly-Phe-c((L-Pen)-Arg-Arg-Ile-Arg-Pro-Cys)] (H-YGGF[Pen]RRIRPC-NH2; disulfide 5-11) stands 86 nM.
On to `CC[C@H](C)[C@@H]1NC(=O)[C@H](CCCNC(=N)N)NC(=O)[C@H](CCCNC(=N)N)NC(=O)[C@@H](NC(=O)[C@H](Cc2ccccc2)NC(=O)CNC(=O)CNC(=O)[C@@H](N)Cc2ccc(O)cc2)CSSC[C@@H](C(N)=O)NC(=O)[C@H](CC(C)C)NC(=O)[C@H](CCCCN)NC(=O)[C@H]2CCCN2C(=O)[C@H](CCCNC(=N)N)NC1=O` [Tyr-Gly-Gly-Phe-c(Cys-Arg-Arg-Ile-Arg-(D-Pro)-Lys-Leu-Cys)], for which the half-maximal inhibitory concentration (IC50) worked out at 9.6 nM.
The same measure, in the same setting: under `CC[C@H](C)[C@@H]1NC(=O)[C@H](CCCN=C(N)N)NC(=O)[C@H](CCCN=C(N)N)NC(=O)[C@@H](NC(=O)[C@H](Cc2ccccc2)NC(=O)CNC(=O)CNC(=O)[C@@H](N)Cc2ccc(O)cc2)CSSC[C@@H](C(=O)N[C@@H](CCCCN)C(N)=O)NC(=O)[C@H](CCCN=C(N)N)NC1=O` [Tyr-Gly-Gly-Phe-c(Cys-Arg-Arg-Ile-Arg-Cys)-lys] (H-YGGFCRRIRCK-NH2; disulfide 5-10) stands 83 nM; under `CC[C@H](C)[C@@H]1NC(=O)[C@H](CCCN=C(N)N)NC(=O)[C@H](CCCN=C(N)N)NC(=O)[C@@H](NC(=O)[C@H](Cc2ccccc2)NC(=O)CNC(=O)CNC(=O)[C@@H](N)Cc2ccc(O)cc2)CSSC[C@@H](C(=O)N2CCC[C@H]2C(=O)N[C@@H](CCCCN)C(N)=O)NC1=O` [Tyr-Gly-Gly-Phe-c(Cys-Arg-Arg-Ile-Cys)-Pro-lys] (H-YGGFCRRICPK-NH2; disulfide 5-9), 31 nM.
`CC[C@H](C)[C@@H]1NC(=O)[C@H](CCCNC(=N)N)NC(=O)[C@@H](NC(=O)[C@H](CC(C)C)NC(=O)[C@H](Cc2ccccc2)NC(=O)CNC(=O)CNC(=O)[C@@H](N)Cc2ccc(O)cc2)CSSC[C@@H](C(=O)N[C@@H](CCCCN)C(N)=O)NC(=O)[C@H](CCCNC(=N)N)NC1=O` [Tyr-Gly-Gly-Phe-leu-c(Cys-Arg-Ile-Arg-Cys)-lys] (H-YGGFLCRIRCK-NH2; disulfide 6-10) showed an IC50 of 0.475 nM.

Assay in the next experiment: as above
This is another data set of the same source.
With `CC[C@H](C)[C@@H]1NC(=O)[C@H](CCCN=C(N)N)NC(=O)[C@H](CCCN=C(N)N)NC(=O)[C@@H](NC(=O)[C@H](Cc2ccccc2)NC(=O)CNC(=O)CNC(=O)[C@@H](N)Cc2ccc(O)cc2)CSSC[C@@H](C(=O)N[C@@H](CCCN=C(N)N)C(=O)N[C@@H](CCCCN)C(N)=O)NC1=O` [Tyr-Gly-Gly-Phe-c(Cys-Arg-Arg-Ile-Cys)-Arg-lys] (H-YGGFCRRICRK-NH2; disulfide 5-9), the IC50 stood at 18 nM.
